Test results published in patent US10071103B2, “Treatments for resistant acne” (VYOME BIOSCIENCES PVT. LTD., priority 2014, dated 2018).
≈ marks a conversion by molar mass, not a printed value. Entries after “also recorded” stand apart in the source; their conditions may differ.

How the values were obtained:
E. coli DNA gyrase = target: T1, E. coli DNA gyrase (Escherichia coli, UniProt P0AES4+P0AES6); assay: DNA gyrase super-coiling activity assay (Topogen kit, relaxed pHOT1 plasmid); format: biochemical; conditions: 1 μM and 2.5 μM
T1 construct: purchased Topogen Inc
T1 sequence (P0AES4 whole entry, one chain of several): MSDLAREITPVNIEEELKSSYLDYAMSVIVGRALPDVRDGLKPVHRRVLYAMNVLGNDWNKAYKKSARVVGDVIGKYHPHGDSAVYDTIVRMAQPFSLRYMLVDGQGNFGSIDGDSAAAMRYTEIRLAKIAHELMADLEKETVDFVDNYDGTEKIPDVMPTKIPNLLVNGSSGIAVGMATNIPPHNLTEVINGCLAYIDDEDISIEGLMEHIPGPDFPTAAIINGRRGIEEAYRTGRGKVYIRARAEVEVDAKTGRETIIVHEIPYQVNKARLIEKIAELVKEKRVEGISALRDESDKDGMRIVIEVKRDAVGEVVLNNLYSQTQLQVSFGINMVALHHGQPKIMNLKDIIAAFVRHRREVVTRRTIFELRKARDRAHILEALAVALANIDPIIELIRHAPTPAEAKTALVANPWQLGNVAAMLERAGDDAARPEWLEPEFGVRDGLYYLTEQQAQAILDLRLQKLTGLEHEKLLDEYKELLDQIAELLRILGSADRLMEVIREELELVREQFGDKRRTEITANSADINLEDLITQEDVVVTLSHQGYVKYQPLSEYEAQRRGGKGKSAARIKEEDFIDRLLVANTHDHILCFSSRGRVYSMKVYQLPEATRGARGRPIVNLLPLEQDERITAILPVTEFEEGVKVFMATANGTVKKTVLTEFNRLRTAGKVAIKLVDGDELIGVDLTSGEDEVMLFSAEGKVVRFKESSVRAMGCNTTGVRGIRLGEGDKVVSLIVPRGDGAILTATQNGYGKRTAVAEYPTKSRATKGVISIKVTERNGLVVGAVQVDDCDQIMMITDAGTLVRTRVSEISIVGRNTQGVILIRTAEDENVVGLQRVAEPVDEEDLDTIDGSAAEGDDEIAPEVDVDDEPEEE
Method: DNA super-coiling activity was assayed using DNA gyrase assay kit (Topogen Inc.) with relaxed pHOT1 E. coli plasmid DNA according to manufacturer's protocol. The standard reaction mixture (20 μl) contained 35 mM Tris-HCl (pH 7.5), 24 mM KCl, 4 mM MgCl2, 2 mM dithiothreitol, 1.8 mM spermidine, 1 mM ATP, 6.5% glycerol, 0.1 mg/ml bovine serum albumin (BSA), 10 μg/ml relaxed pHOT1 plasmid DNA and 1 U of DNA gyrase. The reaction mixture was incubated at 37° C. for 1 h in presence of selected compounds/fluoroquinolone at different concentrations. The reaction was terminated by addition of ⅕ volume of loading dye (4 μl) followed by proteinase K (50 μg/ml) and again incubated at 37° C. for half an hour. 20 μl chloroform/isoamyl alcohol (24:1) was added to each tube and vortexed briefly. Thereafter, the blue aqueous phase was separated out and analyzed by 1% agarose gel electrophoresis. The gel was stained by ethidium bromide for half an hour and destained with water for 15 mins. The gel was then visualized in a trans-illuminator and photographed.

S. aureus MTCC 6908 = assay: MIC by micro broth dilution, laboratory S. aureus strain; format: cell-based, Staphylococcus aureus; conditions: Staphylococcus aureus, MTCC6908; Table 6; read-out: MIC Susceptible S. aureus (6908) strain
Method: (§1) The plates were incubated at 37° C. for 48 h under anaerobic condition for P. acnes and 37° C. for 24 h for S. aureus The plates were read under Bio-Rad plate reader at 595 nm for optical density to generate the dose-response curves. The MIC of the test compound was recorded by addition of Alamar blue dye.
S. aureus MTCC 6908 were grown in Tryptone Soya Agar (TSA) at 37° C. for 24 hours. […] Plates were incubated at 37° C. for 24 hours. […] (2) Zone of Inhibition (ZOI): S. aureus MTCC 6908 were grown in Tryptone Soya Agar (TSA) at 37° C. for 24 hours. BHA plates are spreaded with 100 μl of 0.5 McFarland standard equal bacterial suspension. Test samples (drugs/formulations) were dissolved in water/solvent based on the solubility. Sterile disc (6 mm) were loaded with 10 μl of test samples (of various concentration of drug), and were placed above the spreaded plates. Plates were incubated at 37 C for 24 h, followed by ZOI measurement. (3) Time Kill Assay: 0.5 McFarland standard equal S. aureus culture was prepared in sterile water. Besifloxacin gels were diluted in Tryptone Soya broth (TSB) to get final concentration of 25 μg/ml. Then 900 μl of S. aureus 0.5 McFarland standard equal culture and 100 μl of diluted Besifloxacin gel was mixed to obtain final Besifloxacin concentration, 2.5 μl g/ml. Total reaction mixture (1 ml) was incubated at 37° C. in a tube rotator. After 2 and 6 h exposure, bacterial suspension was placed on Tryptone soya agar plate and incubated at 37° C. for 24 h.
Inoculated plates were incubated at 37° C. for 24 hours.

P. acnes MTCC 1951 = assay: MIC by micro broth dilution (Alamar blue), clindamycin-susceptible P. acnes; format: cell-based, Propionibacterium acnes
Method: as §1
(§2) P. acnes (MTCC 3297, MTCC 1951& CCARM 9010) are cultured in Brain Heart Infusion (BHI) Broth at 37° C. for 48-72 h under anaerobic condition. The test compounds/formulations are initially diluted with suitable solvent and further diluted with BHI broth to get the required concentrations. Samples (100 μl) of different concentrations (prepared by serial dilution) are added to 96-well plate. To the wells, 100 μl of P. acnes BHI broth culture is added [culture turbidity adjusted against 0.5 McFarland standard (approx 1.5×10^8), and further diluted 100-fold with sterile BHI broth]. In addition Growth Control and Sterility Control are created using 100 μl each of P. acnes BHI broth culture and plain BHI broth, respectively.
(§3) Plates are incubated at 37° C. for 48-72 hrs under anaerobic condition. The plate is read under Bio-Rad plate reader @ 595 nm for optical density to generate the dose-response curves. The MIC of the test compound is recorded by addition of Alamar blue dye.
BHI broth and BHI agar media were prepared as per the manufacturer's instruction and autoclaved at 121° C. for 15 minutes. […] For MIC determination testing, gels are dissolved in the solvent and further diluted with BHI broth. Then, 96 wells plate are filled with 100 μl of BHI broth containing drug with different concentration to get the final concentrations of 0.06, 0.13, 0.25, 0.5, 1 and 2 μg/ml in different lanes (lane 1 to lane 6). Remaining lanes of the 96 well plate are used as growth control and sterility control. Finally, P. acnes culture suspension (approx 1.5×10^6) is added in all the wells except sterility control wells and plate is incubated at 37° C. for 48-72 h under anaerobic condition. At the end of 72 h, Alamar blue solution (20 μl) is added into the wells and incubated at 37° C. for 2 h. Plate is visualized for bacterial inhibitions and MIC values of the tested samples are determined. […]

P. acnes CCARM 9010 [1] = assay: MIC by micro broth dilution (Alamar blue), clindamycin-resistant/nonresponsive P. acnes; format: cell-based, Propionibacterium acnes
Method: as §1, §2, §3

IL-6 = assay: P. acnes-induced IL-6 release in THP-1 cells (ELISA); format: cell-based; conditions: THP-1 cells
Method: (§4) Method: Preparation of Stimulant for Inflammation: P. acnes culture suspension was prepared in PBS and the cell number in the suspension was adjusted to approximately 5×10^8 CFU/ml by measuring the cell density using a Densimat. The bacterial suspension was then heat killed at 80° C. for 30 min and stored at −80° C. until further use.
(§5) Cells were seeded in a 96-well format (2×10^5 THP-1 cells per well) in media containing 10% FBS. The cells were stimulated to induce inflammatory cytokines using 3 McFarland equivalent heat-killed P. acnes. Cells in control wells were treated with PBS. One hour after induction with P. acnes, test agents were added to the induced cells at appropriate concentrations to be tested (compound 91 at 25 μg/ml). The plates were incubated at 37° C. for 24 hours. After 24 h, the plates were centrifuged to pellet the cells and the supernatants were collected. The cell culture supernatants thus obtained were analyzed for levels of cytokines (IL-1α, IL-1β, IL-6 and IL-8) by ELISA using R&D Systems kits for individual cytokines following the manufacturer's instructions.
(§6) Preparation of stimulant for inflammation: P. acnes culture suspension was prepared in PBS and the cell number in the suspension was adjusted to approximately 5×10^8 CFU/ml by measuring the cell density using a Densimat. The bacterial suspension was then heat killed at 80° C. for 30 min and stored at −80° C. until further use.
(§7) Cells were seeded in a 96-well format (2×10^5 THP-1 cells per well) in media containing 10% FBS. The cells were stimulated to induce inflammatory cytokines using 3 McFarland equivalent heat-killed P. acnes. Cells in control wells were treated with PBS. One hour after induction with P. acnes, test agents were added to the induced cells at appropriate concentrations (Besifloxacin at 10 and 30 μg/ml; Adapalene at 0.04 and 0.4 μg/ml). The plates were incubated at 37° C. for 24 hours. After 24 h, the plates were centrifuged to pellet the cells and the supernatants were collected. The cell culture supernatants thus obtained were analyzed for cytokine levels (IL-6 and IL-8) by ELISA using R&D Systems kits for individual cytokines following the manufacturer's instructions.

IL-8 = assay: P. acnes-induced IL-8 release in THP-1 cells (ELISA); format: cell-based; conditions: THP-1 cells
Method: as §4, §5, §6, §7

P. acnes CCARM 9010 [2] = assay: In vitro time kill kinetics, P. acnes CCARM 9010; format: cell-based, Propionibacterium acnes; conditions: 2.5 μg/ml
Method: P. acnes (CCARM 9010) Aqueous Suspension (0.5 McFarland standard equivalent) was centrifuged at 2000 rpm for 20 min, pellet was resuspended in Brain Heart Infusion (BHI) broth. Resultant P. acnes suspension was kept for overnight (16 h) incubation in anaerobic box at 37° C. Stock solution of besifloxacin.HCl (1 mg/ml) was prepared in dimethyl sulphoxide (DMSO) which was further diluted with BHI broth to achieve working stock of besifloxacin.HCl (25 μg/ml). Then reaction mixture was prepared by adding 900 μl of P. acnes 0.5 McFarland standard culture (after 16 h incubation) to 100 μl of besifloxacin.HCl working stock solution (25 μg/ml), final besifloxacin.HCl concentration in reaction mixture was 2.5 μg/ml. Reaction mixture (1 ml) was incubated at 37° C. for 24 h in an anaerobic box in two sets—(1) tube with P. acnes with 2.5 μg/ml Besifloxacin.HCl and 2) broth control without besifloxacin.HCl. At predetermined time points (1 h, 6 h and 24 h), cells were collected and plated in duplicate after serial dilution in Brain Heart Infusion agar plate. Plates were allowed to grow for 3 days at 37° C. in anaerobic box. After incubation, plates were counted to determine colony forming units (CFU) and log reduction was calculated. In a similar experimental set-up, water was used as solvent instead of DMSO and effects of solvents on time kill kinetics were also studied.
2) Zone of Inhibition (ZOI): For ZOI test, BHA plates were spread with 100 μl of P. acnes suspension (0.5 McFarland standard equal). Test samples (drugs/formulations) were dissolved in water/solvent based on the solubility. Sterile disc (6 mm) were loaded with 10 μl of test samples (of various concentration of drug), and were placed above the plates containing P. acnes culture. Then, plates were incubated at 37° C. for 48 h, followed by their ZOI measurements. 3) Time Kill Kinetics (TK): For TK Test, P. acnes (CCARM 9010) aqueous suspension (0.5 McFarland standard equivalent) was centrifuged at 2000 rpm for 20 min, pellet was resuspended in brain heart infusion (BHI) broth. Resultant P. acnes suspension was kept for overnight (16 h) incubation in anaerobic box at 37° C. Stock solution of besifloxacin.HCl (1 mg/ml) was prepared in dimethyl sulphoxide (DMSO) which was further diluted with BHI broth to obtain working stock of besifloxacin.HCl (25 μg/ml). Then reaction mixture was prepared by adding 900 μl of P. acnes 0.5 McFarland standard equal culture (after 16 h of incubation) and 100 μl of besifloxacin.HCl working stock (25 μg/ml), to obtain final besifloxacin.HCl concentration in reaction mixture, 2.5 μg/ml. Reaction mixture (1 ml) was incubated at 37° C. in an anaerobic box—(1) tube with P. acnes and 2.5 μg/ml Besifloxacin.HCl and 2) broth control without besifloxacin.HCl for 24 h. At predetermined time points (0 h, 2 h, 8 h and 24 h), cells were collected and plated in duplicate after serial dilution in brain heart infusion agar plate. Plates were allowed to grow for 3 days at 37° C. in anaerobic box. After incubation, plates were counted to determine colony forming units (CFU) and log reduction was calculated.
0.5 McFarland standard equal P. acnes (CCARM 9010) culture was prepared in sterile water. Prepared culture was centrifuged at 2000 rpm for 20 min then supernatant was removed and similar amount of brain heart infusion (BHI) broth was added. P. acnes culture in BHI broth was kept for overnight (16 h.) incubation in anaerobic box at 37° C. Besifloxacin powder was diluted in water and DMSO to prepare 1 mg/ml stock and then both were further diluted in BHI broth to make final concentration of 100 μg/ml. 900 μl of P. acnes 0.5 McFarland culture (after 16 h. incubation) and 100 μl of diluted Besifloxacin (100 μg/ml) were mixed to obtain final Besifloxacin concentration 10 μg/ml in reaction mixture. Total reaction mixture (1 ml) was incubated at 37° C. in an anaerobic box.

[3] = Cells + P. acnes + 10 μg/ml, 24 h, Table 70
[4] = Cells + P. acnes + 30 μg/ml, 24 h, Table 70
[5] = Cells + P. acnes + Besifloxacin•HCl 10 μg/ml, Table 71

Row | SMILES | Inhibition of super-coiling activity of DNA gyrase (in words) (E. coli DNA gyrase) | MIC (S. aureus MTCC 6908) | MIC (P. acnes MTCC 1951; Cutibacterium acnes, MTCC1951, read-out: MIC Susceptible P. acnes (1951) strain) | Activity / bacterial killing, dose response curve (in words) (P. acnes MTCC 1951; clindamycin-susceptible MTCC 1951) | MIC (P. acnes CCARM 9010 [1]; Cutibacterium acnes, CCARM9010, read-out: MIC Resistant P. acnes (9010) strain) | Activity / bacterial killing, dose response curve (in words) (P. acnes CCARM 9010 [1]; clindamycin-nonresponsive CCARM 9010) | Expression of Cytokines IL-6 (pg/ml) Mean (IL-6; [3]) | Expression of Cytokines IL-6 (pg/ml) Mean (IL-6; [4]) | Expression of Cytokines IL-6 (pg/ml) Mean (IL-6; [5]) | Expression of Cytokines IL-8 (pg/ml) Mean (IL-8; [3]) | Expression of Cytokines IL-8 (pg/ml) Mean (IL-8; [4]) | Expression of Cytokines IL-8 (pg/ml) Mean (IL-8; [5]) | Log 10 value of P. acnes (P. acnes CCARM 9010 [2]; stock in DMSO, 0 h) | Log 10 value of P. acnes (P. acnes CCARM 9010 [2]; stock in DMSO, 1 h) | Log 10 value of P. acnes (P. acnes CCARM 9010 [2]; stock in DMSO, 6 h) | Log 10 value of P. acnes (P. acnes CCARM 9010 [2]; stock in DMSO, 24 h) | Log 10 value of P. acnes (P. acnes CCARM 9010 [2]; stock in water, 0 h) | Log 10 value of P. acnes (P. acnes CCARM 9010 [2]; stock in water, 1 h) | Log 10 value of P. acnes (P. acnes CCARM 9010 [2]; stock in water, 6 h) | Log 10 value of P. acnes (P. acnes CCARM 9010 [2]; stock in water, 24 h)
1 | Cc1ncc([N+](=O)[O-])n1CC(O)CCN1CCN(c2cc3c(cc2F)c(=O)c(C(=O)O)c2n3C(C)S2)CC1 (centres unmarked) [Compound 116, 6-Fluoro-7-{4-[3-hydroxy-4-(2-methyl-5-nitro-imidazol-1-yl)-butyl]-piperazin-1-yl}-1-methyl-4-oxo-4H-2-thia-8b-aza-cyclobuta[a]naphthalene-3-carboxylic acid] | able to inhibit the super-coiling activity; also recorded: highly potent; also recorded: best gyrase inhibiting activity | 1.64 µg/mL (≈ 3 µM) | 0.4 µg/mL (≈ 0.732 µM) | more than double MIC values | 0.8 µg/mL (≈ 1.46 µM) | more than double MIC values |  |  |  |  |  |  |  |  |  |  |  |  |  | 
2 | Cl.N[C@@H]1CCCCN(c2c(F)cc3c(=O)c(C(=O)O)cn(C4CC4)c3c2Cl)C1 [Besifloxacin•HCl] |  |  |  |  |  |  | 282.45 pg/mL | 124.58 pg/mL | 282.45 pg/mL | 2484.8 pg/mL | 2301.6 pg/mL | 2484.76 pg/mL | 7.0 ± 0.02 | 6.7 ± 0.03 | 6.0 ± 0.05 | 5.2 ± 0.02 | 7.0 ± 0.02 | 6.7 ± 0.03 | 6.0 ± 0.02 | 5.2 ± 0.02
